According to publication PMC4584933, “Establishing the pig as a large animal model for vaccine development against human cancer” (Frontiers in Genetics, 2015):

Tested on: PBMCs
Experiment: In vitro peptide stimulation of porcine PBMCs, IFN-γ release assay (ELISA)
Format: cell-based, pig
Design: key to T cell response: “x” indicates that a response was found to this given peptide at least once
Settings: not given

Row | Substance | IFN-γ in positive control cultures [pg/mL]
1 | Staphylococcal Enterotoxin B [SEB, reference compound] | > 70

Same assay, conditions: PBMCs of immunized pigs, 2 × 10^5/well, 5 μg/ml peptide, 67.5–70.0 h, IFN-γ ELISA; response = 2-fold increase vs day -2 and at least 25 pg/ml IFN-γ, found at least once; SLA restriction not included

Row | Substance | T cell response
2 | FALPNPLEEL [IDO22, porcine IDO-derived 9-11mer peptide] | x
3 | MDNSWKIFEEY [IDO76, porcine IDO-derived 9-11mer peptide] | x
4 | LSEGLLYEGVW [IDO71, porcine IDO-derived 9-11mer peptide] | x
5 | AGFLQEMRTY [IDO1, porcine IDO-derived 9-11mer peptide] | x
6 | FNAIQCEDL [IDO26, porcine IDO-derived 9-11mer peptide] | x
7 | FNVLRIYLSGW [IDO29, porcine IDO-derived 9-11mer peptide] | x
8 | LGYITMAYVW [IDO66, porcine IDO-derived 9-11mer peptide] | x
9 | TYMPPAHRNF [IDO124, porcine IDO-derived 9-11mer peptide] | x
10 | VDGKQVELALW [RhoC52, porcine RhoC-derived 9-11mer peptide] | x

Tested on: SLA-2*04:01
Experiment: Peptide-MHC class I complex stability, scintillation proximity assay (SPA)
Design: species or system pig
Settings: biotinylated recombinant SLA heavy chain, 125I-β2m, excess unlabeled β2m, read every 40 min, number only if t1/2 ≥ 0.5 h, '-' = not stably binding
Experimental: (§1) The stability of the selected 198 peptides in complex with relevant SLA class I molecules and β2m was determined using a scintillation proximity assay (SPA), as previously described (Harndahl et al., [2011]). Briefly, biotinylated recombinant MHC class I heavy chains were attached to a streptavidin-coated scintillation microplate together with iodinated (^125I) β2m and candidate peptide resulting in a scintillation signal, which was consecutively measured every 40 min by a scintillation plate counter. The duration of this signal is directly correlated to the stability of the peptide-MHC class I-β2m complex under dissociating conditions and in the presence of excess unlabeled β2m (Harndahl et al., [2011]). Peptides with a half-life ≥ 0.5 h were selected as stable binders.

Row | Substance | Binder (t1/2 ≥ 0.5 h): half-life of peptide-SLA-2*04:01 complex
11 | FALPNPLEEL [IDO22, porcine IDO-derived 9-11mer peptide] | 0.5 h
12 | DNSWKIFEEY [IDO11, porcine IDO-derived 9-11mer peptide] | - (t1/2 (hours) is listed for each of the stably binding peptides (t1/2 ≥ 0.5 h))
13 | NSWKIFEEYH [IDO90, porcine IDO-derived 9-11mer peptide] | - (t1/2 (hours) is listed for each of the stably binding peptides (t1/2 ≥ 0.5 h))
14 | EKLGLPPILVY [IDO17, porcine IDO-derived 9-11mer peptide] | - (t1/2 (hours) is listed for each of the stably binding peptides (t1/2 ≥ 0.5 h))
15 | MDNSWKIFEEY [IDO76, porcine IDO-derived 9-11mer peptide] | 1.9 h
16 | DSLENIPEKW [RhoC9, porcine RhoC-derived 9-11mer peptide] | - (t1/2 (hours) is listed for each of the stably binding peptides (t1/2 ≥ 0.5 h))
17 | SSLHKALEVF [IDO121, porcine IDO-derived 9-11mer peptide] | - (t1/2 (hours) is listed for each of the stably binding peptides (t1/2 ≥ 0.5 h))
18 | WDTAGQEDY [RhoC55, porcine RhoC-derived 9-11mer peptide] | - (t1/2 (hours) is listed for each of the stably binding peptides (t1/2 ≥ 0.5 h))
19 | ENYIADIEVD [RhoC19, porcine RhoC-derived 9-11mer peptide] | - (t1/2 (hours) is listed for each of the stably binding peptides (t1/2 ≥ 0.5 h))
20 | DWWSPMDNSW [IDO13, porcine IDO-derived 9-11mer peptide] | - (t1/2 (hours) is listed for each of the stably binding peptides (t1/2 ≥ 0.5 h))
21 | WWSPMDNSW [IDO132, porcine IDO-derived 9-11mer peptide] | - (t1/2 (hours) is listed for each of the stably binding peptides (t1/2 ≥ 0.5 h))
22 | LSEGLLYEGVW [IDO71, porcine IDO-derived 9-11mer peptide] | 4.4 h
23 | VFSKDQFPEVY [RhoC53, porcine RhoC-derived 9-11mer peptide] | - (t1/2 (hours) is listed for each of the stably binding peptides (t1/2 ≥ 0.5 h))
24 | LDWWSPMDNSW [IDO64, porcine IDO-derived 9-11mer peptide] | - (t1/2 (hours) is listed for each of the stably binding peptides (t1/2 ≥ 0.5 h))
25 | AGFLQEMRTY [IDO1, porcine IDO-derived 9-11mer peptide] | 0.6 h
26 | FNAIQCEDL [IDO26, porcine IDO-derived 9-11mer peptide] | 0.6 h
27 | FNVLRIYLSGW [IDO29, porcine IDO-derived 9-11mer peptide] | 33.6 h
28 | LVYADCVLANW [IDO74, porcine IDO-derived 9-11mer peptide] | - (t1/2 (hours) is listed for each of the stably binding peptides (t1/2 ≥ 0.5 h))
29 | LGYITMAYVW [IDO66, porcine IDO-derived 9-11mer peptide] | 4.9 h
30 | TYMPPAHRNF [IDO124, porcine IDO-derived 9-11mer peptide] | 4.7 h
31 | VDGKQVELALW [RhoC52, porcine RhoC-derived 9-11mer peptide] | 0.5 h
32 | NYHLQIVTKY [IDO93, porcine IDO-derived 9-11mer peptide] | - (t1/2 (hours) is listed for each of the stably binding peptides (t1/2 ≥ 0.5 h))
33 | FSKDQFPEVY [RhoC26, porcine RhoC-derived 9-11mer peptide] | - (t1/2 (hours) is listed for each of the stably binding peptides (t1/2 ≥ 0.5 h))

Tested on: SLA-3*04:01
Experiment: as above
Design: species or system pig
Settings: biotinylated recombinant SLA heavy chain, 125I-β2m, excess unlabeled β2m, read every 40 min, number only if t1/2 ≥ 0.5 h, '-' = not stably binding
Experimental: as §1

Row | Substance | Binder (t1/2 ≥ 0.5 h): half-life of peptide-SLA-3*04:01 complex
34 | RNFLHSLESG [IDO106, porcine IDO-derived 9-11mer peptide] | 0.5 h
35 | KMQRLAHLVL [IDO57, porcine IDO-derived 9-11mer peptide] | - (t1/2 (hours) is listed for each of the stably binding peptides (t1/2 ≥ 0.5 h))
36 | FNVLRIYLS [IDO27, porcine IDO-derived 9-11mer peptide] | - (t1/2 (hours) is listed for each of the stably binding peptides (t1/2 ≥ 0.5 h))
37 | RLRPLSYPD [RhoC45, porcine RhoC-derived 9-11mer peptide] | - (t1/2 (hours) is listed for each of the stably binding peptides (t1/2 ≥ 0.5 h))
38 | RKNKRRRGCPI [RhoC44, porcine RhoC-derived 9-11mer peptide] | - (t1/2 (hours) is listed for each of the stably binding peptides (t1/2 ≥ 0.5 h))
39 | KNKRRRGCPIL [RhoC32, porcine RhoC-derived 9-11mer peptide] | - (t1/2 (hours) is listed for each of the stably binding peptides (t1/2 ≥ 0.5 h))
40 | KALLDITSSL [IDO46, porcine IDO-derived 9-11mer peptide] | - (t1/2 (hours) is listed for each of the stably binding peptides (t1/2 ≥ 0.5 h))
41 | HKMQRLAHLVL [IDO37, porcine IDO-derived 9-11mer peptide] | - (t1/2 (hours) is listed for each of the stably binding peptides (t1/2 ≥ 0.5 h))
42 | YDRLRPLSYPD [RhoC57, porcine RhoC-derived 9-11mer peptide] | - (t1/2 (hours) is listed for each of the stably binding peptides (t1/2 ≥ 0.5 h))
43 | KLFFNVLRIYL [IDO54, porcine IDO-derived 9-11mer peptide] | - (t1/2 (hours) is listed for each of the stably binding peptides (t1/2 ≥ 0.5 h))
44 | MTYKNMDILFS [IDO82, porcine IDO-derived 9-11mer peptide] | - (t1/2 (hours) is listed for each of the stably binding peptides (t1/2 ≥ 0.5 h))
45 | KHFCPNVPIIL [RhoC30, porcine RhoC-derived 9-11mer peptide] | - (t1/2 (hours) is listed for each of the stably binding peptides (t1/2 ≥ 0.5 h))
46 | FNVLRIYLSG [IDO28, porcine IDO-derived 9-11mer peptide] | - (t1/2 (hours) is listed for each of the stably binding peptides (t1/2 ≥ 0.5 h))
47 | NKRRRGCPI [RhoC41, porcine RhoC-derived 9-11mer peptide] | - (t1/2 (hours) is listed for each of the stably binding peptides (t1/2 ≥ 0.5 h))
48 | KTVRGTTVRSL [IDO60, porcine IDO-derived 9-11mer peptide] | - (t1/2 (hours) is listed for each of the stably binding peptides (t1/2 ≥ 0.5 h))
49 | MQRLAHLVL [IDO78, porcine IDO-derived 9-11mer peptide] | - (t1/2 (hours) is listed for each of the stably binding peptides (t1/2 ≥ 0.5 h))
50 | KHFCPNVPII [RhoC29, porcine RhoC-derived 9-11mer peptide] | - (t1/2 (hours) is listed for each of the stably binding peptides (t1/2 ≥ 0.5 h))
51 | KGFFLVSLLV [IDO50, porcine IDO-derived 9-11mer peptide] | - (t1/2 (hours) is listed for each of the stably binding peptides (t1/2 ≥ 0.5 h))
52 | KNMDILFSFPG [IDO59, porcine IDO-derived 9-11mer peptide] | - (t1/2 (hours) is listed for each of the stably binding peptides (t1/2 ≥ 0.5 h))
53 | KRRRGCPIL [RhoC33, porcine RhoC-derived 9-11mer peptide] | - (t1/2 (hours) is listed for each of the stably binding peptides (t1/2 ≥ 0.5 h))
54 | ANRISAFGYL [RhoC3, porcine RhoC-derived 9-11mer peptide] | - (t1/2 (hours) is listed for each of the stably binding peptides (t1/2 ≥ 0.5 h))
55 | QEMRTYMPP [IDO101, porcine IDO-derived 9-11mer peptide] | - (t1/2 (hours) is listed for each of the stably binding peptides (t1/2 ≥ 0.5 h))
56 | YDRLRPLSY [RhoC56, porcine RhoC-derived 9-11mer peptide] | - (t1/2 (hours) is listed for each of the stably binding peptides (t1/2 ≥ 0.5 h))
57 | KEGVREVFEM [RhoC27, porcine RhoC-derived 9-11mer peptide] | - (t1/2 (hours) is listed for each of the stably binding peptides (t1/2 ≥ 0.5 h))
58 | KTKEGVREVF [RhoC34, porcine RhoC-derived 9-11mer peptide] | - (t1/2 (hours) is listed for each of the stably binding peptides (t1/2 ≥ 0.5 h))
